Measurements: paper PMC7797783, “Identification of Active Compounds From Yi Nationality Herbal Formula Wosi Influencing COX-2 and VCAM-1 Signaling” (Frontiers in Pharmacology, 2020)
“And” between values parts separate entries of the source, which are not always exact repeats. Equal values may be shown once. Each block holds one compound with its values, some of them ahead of it.

Columns and labels:
COX-2 = target: T1, COX-2 (Homo sapiens, UniProt P35354); assay: In vitro cyclooxygenase inhibition assay (colorimetric COX inhibitor screening kit, PGE2 synthesis), COX-2; format: biochemical; details: for IC50: duplicate determinations, 0.01 to 550 μM; for COX-2/COX-1 selectivity ratio: ratio of IC50 values (μM)
T1 construct: purchased Cayman Chemical Company 560131
T1 sequence (P35354 18-604): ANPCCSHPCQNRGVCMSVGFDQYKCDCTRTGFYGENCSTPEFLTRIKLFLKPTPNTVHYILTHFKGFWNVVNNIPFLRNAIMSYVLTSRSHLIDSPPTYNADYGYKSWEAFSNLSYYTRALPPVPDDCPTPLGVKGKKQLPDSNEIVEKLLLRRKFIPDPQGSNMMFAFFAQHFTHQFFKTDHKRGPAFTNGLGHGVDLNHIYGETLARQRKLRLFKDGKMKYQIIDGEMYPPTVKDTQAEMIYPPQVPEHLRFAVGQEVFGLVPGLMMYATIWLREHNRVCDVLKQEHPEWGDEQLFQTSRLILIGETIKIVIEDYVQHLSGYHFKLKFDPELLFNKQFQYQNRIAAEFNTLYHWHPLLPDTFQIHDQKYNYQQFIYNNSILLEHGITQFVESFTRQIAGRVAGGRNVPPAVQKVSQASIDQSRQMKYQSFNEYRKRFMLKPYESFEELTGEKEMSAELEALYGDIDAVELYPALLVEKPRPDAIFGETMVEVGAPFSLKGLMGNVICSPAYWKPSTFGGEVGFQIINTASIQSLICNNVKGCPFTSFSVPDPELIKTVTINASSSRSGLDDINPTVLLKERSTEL

COX-1 = target: T2, COX-1 (Ovis aries, UniProt P05979); assay: In vitro cyclooxygenase inhibition assay (colorimetric COX inhibitor screening kit, PGE2 synthesis), COX-1; format: biochemical; details: duplicate determinations; 0.01 to 550 μM
T2 construct: purchased Cayman Chemical Company 560131
T2 sequence (P05979 25-600): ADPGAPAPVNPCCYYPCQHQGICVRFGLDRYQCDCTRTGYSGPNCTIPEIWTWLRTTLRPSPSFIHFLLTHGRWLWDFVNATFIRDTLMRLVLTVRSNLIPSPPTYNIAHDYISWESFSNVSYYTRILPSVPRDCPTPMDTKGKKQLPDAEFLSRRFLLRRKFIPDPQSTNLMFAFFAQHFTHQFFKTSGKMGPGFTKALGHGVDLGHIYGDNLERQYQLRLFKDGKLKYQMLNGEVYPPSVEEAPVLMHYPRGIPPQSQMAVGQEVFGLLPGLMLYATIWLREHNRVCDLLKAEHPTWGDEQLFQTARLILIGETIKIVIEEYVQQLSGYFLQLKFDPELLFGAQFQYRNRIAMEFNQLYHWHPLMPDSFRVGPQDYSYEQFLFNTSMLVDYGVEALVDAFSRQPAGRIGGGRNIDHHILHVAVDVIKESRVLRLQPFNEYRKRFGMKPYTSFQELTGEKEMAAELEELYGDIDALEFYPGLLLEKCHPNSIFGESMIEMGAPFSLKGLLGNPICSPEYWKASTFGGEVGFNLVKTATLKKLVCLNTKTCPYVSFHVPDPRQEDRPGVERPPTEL

hyperuricemia rats = assay: Hyperuricemia rat model (adenine/dry yeast), uric acid in serum and urine; format: in vivo, Sprague-Dawley (SD) rats; details: oral, 5 days, Wosi 0.5, 1, 2 g/kg, vs model group
Procedure: The rats were divided into six groups, and each group comprised of 10 animals which were control, model, Benzbromarone (0.01 mg/kg), Wosi (0.5, 1, and 2 g/kg) groups. Briefly, 10% dry yeast solution of 1.25% adenine (10 ml/kg) was given orally administration for 15 consecutive days to induce the hyperuricemia in each animal except those of control groups. The solution of 0.5% CMC-Na was given to the control groups. On the 10th day, the Wosi and Benzbromarone were orally administered continuously 24 h 5 days. Normal saline was given to the control and model groups. Collecting 14th and 15th days of rat urine (24 h) and recording the volume. It was centrifuged at 3,500 g for 5 min to remove the precipitations. On the 15th day, rats were first anesthetized with pentobarbital sodium (i.p., 70 mg/kg body weight), 1 h after the final drug treatment. Then the blood sample was collected and centrifuged at 3000 g for 5 min to obtain the serum. Serum were kept under −20°C.
According to manufacturer’s instructions, using a standard diagnostic kit, was used in order to evaluate the concentration of uric acid concentration in serum and urine.

[1] = tested on: serum cytokines IL-6, IL-1β, IL-2, IL-10, IFN-γ; assay: Serum inflammatory cytokines (ELISA) in MSU-induced rats; format: in vivo, Sprague-Dawley (SD) rats; details: oral 7 days, Wosi 0.5, 1, 2 g/kg, colchicine 0.2 mg/kg
Procedure: (§1) Rats were divided as aforementioned. Wosi at three doses (0.5, 1, and 2 g/kg) were orally administration once daily for 7 days in Wosi groups. Meanwhile, colchicine was orally administration once daily for 7 days in colchicine groups. The injection of the MSU crystal was performed on the fifth day for each animal except those of control groups. 0.9% sterile saline was given to the control group. On the seventh day, rats were first anesthetized with pentobarbital sodium (i.p., 70 mg/kg body weight) at 30 min after the last dosing, Blood samples were taken from rat femoral artery with heparinized needles which were allowed to clot for 1 h at room temperature and centrifuged at 3,000 g for 10 min to obtain serum. Serum samples were stored at −20°C until the ELISA testing, then rats were sacrificed by femoral artery exsanguination. Meanwhile, the ankle joint surrounding tissues were collected for the immunohistochemical analyze and frozen at −80°C.
The levels of interleukin 6 (IL-6), interleukin 1 beta, interleukin 2 (IL-2), interleukin 10 (IL-10), and interferon gamma (IFN-γ) in the serum were measured using ELISA kits according to manufacturer’s instructions.

[2] = tested on: COX-2 and VCAM-1 protein expression; assay: Immunohistochemistry of COX-2 and VCAM-1 protein in ankle joint synovial tissue of MSU-induced rats; format: in vivo, Sprague-Dawley (SD) rats; details: 7 days, colchicine 0.2 mg/kg
Procedure: as §1
The method of immunohistochemical staining for the ankle joint was as following the previous studies. Briefly, the sections were deparaffinized and […] by xylene and ethanol. […] Finally, the sections were washed with TBS three times, and antibody binding was detected using 3,3′-diaminobenzidine tetrahydrochloride (DAB). […] Stained sections were dehydrated and then each section was analyzed by microscope and image output system.

cyclooxygenase-2 = tested on: cyclooxygenase-2; set-up: method as in Ringbom et al., 1998; details: ref Ringbom et al., 1998; cited from earlier work

IC50 (COX-2): 298 µM
COX-2/COX-1 selectivity ratio (COX-2): 0.67
IC50 (COX-1): 443 µM
SMILES: C[C@@H]1O[C@@H](O[C@@H]2[C@@H](O)[C@H](O[C@H]3CC[C@]4(C)[C@H]5CC=C6[C@@H]7CC(C)(C)CC[C@]7(C(=O)O)CC[C@@]6(C)[C@]5(C)CC[C@H]4C3(C)C)O[C@H](C(=O)O)[C@H]2O)[C@H](O)[C@H](O)[C@H]1O [Compound a, 3-O-[α-L-pyranrhamnose(1-3)-β-D-pyranglucuronic acid]-oleanolic acid]

IC50 (COX-2): 294 µM
COX-2/COX-1 selectivity ratio (COX-2): 0.60
IC50 (COX-1): 488 µM
SMILES: CC1(C)CC[C@]2(C(=O)O[C@@H]3O[C@H](CO)[C@@H](O)[C@H](O)[C@H]3O)CC[C@]3(C)C(=CC[C@@H]4[C@@]5(C)CC[C@H](O[C@@H]6O[C@H](C(=O)O)[C@@H](O)[C@H](O)[C@H]6O)C(C)(C)[C@@H]5CC[C@]43C)[C@@H]2C1 [Compound b, 3-O-(β-D-pyranglucuronic acid)-oleanolic acid-28-O-β-D-pyran glucoside]

IC50 (COX-2): 384 µM and 349 µM
COX-2/COX-1 selectivity ratio (COX-2): 0.65 and 0.64
IC50 (COX-1): 538 µM
SMILES: C[C@@H]1O[C@@H](O[C@@H]2[C@@H](O)[C@H](O[C@H]3CC[C@]4(C)[C@H]5CC=C6[C@@H]7CC(C)(C)CC[C@]7(C(=O)O[C@@H]7O[C@H](CO)[C@@H](O)[C@H](O)[C@H]7O)CC[C@@]6(C)[C@]5(C)CC[C@H]4C3(C)C)O[C@H](C(=O)O)[C@H]2O)[C@H](O)[C@H](O)[C@H]1O [Compound c, 3-O-[α-L-pyranrhamnose(1-3)-β-D-pyranglucuronic acid]-oleanolic acid-28-O-β-D-pyran glucoside]

SMILES: CCc1oc2ccccc2c1C(=O)c1cc(Br)c(O)c(Br)c1 [benzbromarone, Benzbromarone]
serum level of uric acid (hyperuricemia rats): recovered to that of the normal animals
urine uric acid excretion (24 h) (hyperuricemia rats): recovered to that of the normal animals

SMILES: COc1cc2c(c(OC)c1OC)-c1ccc(OC)c(=O)cc1[C@@H](NC(C)=O)CC2 [colchicine, Colchicine]
serum level of IFN-γ [1]: inhibited IL-2, IL-1β, IL-6, and IFN-γ secretion
serum level of IL-1β [1]: inhibited IL-2, IL-1β, IL-6, and IFN-γ secretion
serum level of IL-2 [1]: inhibited IL-2, IL-1β, IL-6, and IFN-γ secretion
serum level of IL-6 [1]: inhibited IL-2, IL-1β, IL-6, and IFN-γ secretion
serum level of IL-10 [1]: increased IL-10 secretion
protein expression of VCAM-1 in synovial tissue (IHC, IOD) ([2]; Wosi 0.5, 1, 2 g/kg): recovered to that of the normal animals
protein expression of COX-2 in synovial tissue (IHC, IOD) ([2]; Wosi particularly at 0.5 and 2 g/kg/day): recovered to that of the normal animals

SMILES: CC1(C)CC[C@]2(C(=O)O)CC[C@]3(C)C(=CC[C@@H]4[C@@]5(C)CC[C@H](O)C(C)(C)[C@@H]5CC[C@]43C)[C@@H]2C1 [oleanolic acid]
selectivity of inhibition of cyclooxygenase-2 catalyzed prostaglandin biosynthesis (cyclooxygenase-2): selective inhibitors of cyclooxygenase-2 catalyzed prostaglandin biosynthesis

SMILES: C[C@H]1[C@H](C)CC[C@]2(C(=O)O)CC[C@]3(C)C(=CC[C@@H]4[C@@]5(C)CC[C@H](O)C(C)(C)[C@@H]5CC[C@]43C)[C@H]12 [ursolic acid]
selectivity of inhibition of cyclooxygenase-2 catalyzed prostaglandin biosynthesis (cyclooxygenase-2): selective inhibitors of cyclooxygenase-2 catalyzed prostaglandin biosynthesis
